Measurements published in ChEMBL document CHEMBL5727849, “Piperidinone formyl peptide 2 receptor and formyl peptide 1 receptor agonists” (2020).
pEC50: −log10 of the molar value.

What was measured:
[1] = target: T1, N-formyl peptide receptor 2 (Homo sapiens, UniProt P25090); experiment: (§1) cAMP Assay: FPR2 and FPR1 Cyclic Adenosine Monophosphate (cAMP) Assays. A mixture of forskolin (5 μM final for FPR2 or 10 μM final for FPR1) and IBMX (200 μM final) were added to 384-well Proxiplates (Perkin-Elmer) pre-dotted with test compounds in DMSO (1% final) at final concentrations in the range of 0.020 nM to 100 μM. Chinese Hamster Ovary cells (CHO) overexpressing human FPR1 or human FPR2 receptors were cultured in F-12 (Ham's) medium supplemented with 10% qualified FBS, 250 μg/ml zeocin and 300 μg/ml hygromycin (Life Technologies). Reactions were initiated by adding 2,000 human FPR2 cells per well or 4,000 human FPR1 cells per well in Dulbecco's PBS (with calcium and magnesium) (Life Technologies) supplemented with 0.1% BSA (Perkin-Elmer). The reaction mixtures were incubated for 30 min at room temperature. The level of intracellular cAMP was determined using the HTRF HiRange cAMP assay reagent kit (Cisbio) according to manufacturer's instruction. Solutions of cryptate conjugated anti-cAMP and d2 flurorophore-labelled cAMP were made in a supplied lysis buffer separately. Upon completion of the reaction, the cells were lysed with equal volume of the d2-cAMP solution and anti-cAMP solution. After a 1-h room temperature incubation, time-resolved fluorescence intensity was measured using the Envision (Perkin-Elmer) at 400 nm excitation and dual emission at 590 nm and 665 nm.; type: cell-based
T1 sequence (P25090 whole entry): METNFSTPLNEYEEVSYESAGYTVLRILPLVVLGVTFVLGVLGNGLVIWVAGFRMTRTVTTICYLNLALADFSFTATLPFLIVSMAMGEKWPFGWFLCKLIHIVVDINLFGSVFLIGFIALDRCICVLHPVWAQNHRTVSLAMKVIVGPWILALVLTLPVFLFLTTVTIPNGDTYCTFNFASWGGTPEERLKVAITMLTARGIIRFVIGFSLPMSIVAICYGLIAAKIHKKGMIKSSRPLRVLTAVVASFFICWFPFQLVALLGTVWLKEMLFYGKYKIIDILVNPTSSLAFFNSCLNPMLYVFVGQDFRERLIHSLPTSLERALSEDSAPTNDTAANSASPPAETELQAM

[2] = target: T2, fMet-Leu-Phe receptor (Homo sapiens, UniProt P21462); experiment: as §1; type: cell-based
T2 sequence (P21462 whole entry): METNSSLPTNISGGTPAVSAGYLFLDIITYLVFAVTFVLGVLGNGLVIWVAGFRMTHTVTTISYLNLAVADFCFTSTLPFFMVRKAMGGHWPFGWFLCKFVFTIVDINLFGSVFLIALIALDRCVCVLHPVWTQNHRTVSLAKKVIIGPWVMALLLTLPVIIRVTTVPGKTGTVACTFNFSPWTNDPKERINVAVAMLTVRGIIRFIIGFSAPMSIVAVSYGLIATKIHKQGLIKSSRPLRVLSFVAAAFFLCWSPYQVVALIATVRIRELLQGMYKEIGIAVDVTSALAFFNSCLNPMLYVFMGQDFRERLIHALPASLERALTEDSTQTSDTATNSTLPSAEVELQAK

SMILES | pEC50 [1] | pEC50 [2]
NC(=O)c1ccccc1-c1ccc(N2CCC[C@@H](NC(=O)Nc3ccc(F)c(F)c3)C2=O)cc1 | 6.08 | 5.77
O=C(Nc1ccc(Cl)cc1)N[C@@H]1CCCN(c2ccc(-c3c(Cl)cccc3Cl)cc2)C1=O | 7.96 | 7.85
